Three compounds from patent publication US20070122830A1, “Prohibitin-directed diagnostics and therapeutics for cancer and chemotherapeutic drug resistance” (Aurelium BioPharma Inc., priority 2005, published 2007) can be followed below.

Read-outs that look alike come from different tables or passages of the source.

Holding throughout (assay type): cell-based, human
Experiment [1] deals with MDA Breast Cancer Cell Line. Nature of the experiment: MTT cytotoxicity assay, transfected MDA cells plus chemotherapeutic drug. Particulars: for IC50: Homo sapiens, mock-transfected control, read-out: EC50, Control; for IC50 / EC50 / fold change of EC50, Prohibitin vs Control: MDA cells; for EC50: prohibitin (siRNA) transfected, read-out: EC50, Prohibitin. As to the method: (§1) For a typical siRNA transfection, 1 nmole of the annealed siRNA duplex was mixed with 1.4 ml of Opti-MEM reagent (Invitrogen). In another tube, […] of Oligofectamine reagent (Invitrogen, Carlsbad, Calif.) was mixed with […] of Opti-MEM. The two solutions were combined and mixed gently by inversion and incubated for 20 min. at RT. The resulting solution was added to the cultured cells drop by drop in a 10 cm dish (cells are approximately 40-50% confluent). The next day the transfected cells were trypsinized and seeded in 6 or 96-well plates and further incubated for the indicated amount of time (assay dependent) before further analysis.
(§2) RNA-transfected cells were seeded in triplicate into 96-well plates at 5×10^3 cells/well 48 hrs post-transfection. The cells were incubated for an additional 16 to 24 hrs before they were exposed to increasing concentrations of cytotoxic drugs. […] Appropriate dilutions were made in the respective media for each cell line. Following addition of drugs, incubation was continued for an additional 72 hrs. […] of MTT dye (5 mg/ml) were added into each well and the plate was further incubated at 37° C. for 4 hrs. The dye was solubilized with 10% Triton X-100, 0.01 N HCl and further incubated at 37° C. in the dark for 30 min. Cell viability was determined by measure of absorption at 570 nm in a Wallac multiwell plate reader (PerkinElmer, Inc., Boston, Mass.). The averages of triplicate wells were plotted using the Prism software (GraphPad Software, Inc., San Diego, Calif.).

Experiment [2] concerns MCF-7 Breast Cancer Cell Line. Nature of the experiment: MTT cytotoxicity assay, transfected MCF-7 cells plus chemotherapeutic drug. Particulars: for sensitivity to drug of prohibitin siRNA treated cells: MCF-7, FIGS. 15A-15H; for EC50: prohibitin (siRNA) transfected, read-out: EC50, Prohibitin; for fold change of EC50, Prohibitin vs Control: direction IS/IR in same cell (E42). As to the method: as §1
as §2, with “Cell survival was determined using the MTT cytotoxicity assay (see, e.g., Tokuyama et al. (2005) Anticancer Res. 25(1A): 17-22). RNA-transfected” for “RNA-transfected”, “drugs. Doxorubicin (adriamycin), cisplatinum, taxol, vinblastin, vincristin, and mitoxantrone were all purchased from Sigma Corp. (St. Louis, Mo.).” for “drugs.”
Cell survival was determined as described in Example 3 above.

Experiment [3] concerns SKOV3 Ovarian Cancer Cell Line. Nature of the experiment: MTT cytotoxicity assay, transfected SKOV3 cells plus chemotherapeutic drug. The note with it: for IC50: Homo sapiens, SK-OV-3, SKOV3 cells, mock-transfected control, read-out: EC50, Control; for EC50 / fold change of EC50, Prohibitin vs Control: SKOV3 cells; for EC50: prohibitin (siRNA) transfected, read-out: EC50, Prohibitin; for fold change of EC50, Prohibitin vs Control: direction IS/IR in same cell (E54). As to the method:
as §1, §2
Each table summarizes the results of an individual experiment performed in triplicate.

[4] abbreviates: Table 3 experiment, direction IS/IR in same cell (E6).
Setting [5] is: Table 4 experiment, direction IS/IR in same cell (E12).
[6] abbreviates: Table 7 experiment, direction IS/IR in same cell (E30).
Where [7] appears, read: Table 8 experiment, direction IS/IR in same cell (E36).

In the case of `O=C1c2c(O)ccc(O)c2C(=O)c2c(NCCNCCO)ccc(NCCNCCO)c21` [Mitoxantrone], the IC50 in experiment [1] (Table 3 experiment) was 0.11 nM; in experiment [1] (Table 4 experiment) it was 0.0961 nM; in experiment [1] (Table 7 experiment), 44.1 nM; in experiment [1] (Table 8 experiment) it was 40.9 nM; in experiment [3] (Table 10 experiment) it was 0.801 nM; in experiment [3] (Table 11 experiment), 0.147 nM. Moreover, the half-maximal effective concentration (EC50) in experiment [1] (Table 3 experiment) was 0.173 nM; in experiment [1] (Table 4 experiment), 0.409 nM; in experiment [1] (Table 7 experiment), 27.6 nM; in experiment [1] (Table 8 experiment), 26.6 nM; in experiment [2] (MCF-7 cells, Table 9), 3.94 nM; in experiment [3] (Table 10 experiment), 0.358 nM. Moreover, in experiment [3] (Table 11 experiment), the EC50 was 0.118 nM. Also, the “fold change of EC50, Prohibitin vs Control” value (“fold change of EC50” below) was 1.6 x in experiment [1] (setting [4]); 4.2 x in experiment [1] (setting [5]); 1.6 x in experiment [1] (setting [6]); 1.5 x in experiment [1] (setting [7]); 2.2 x in experiment [2] (MCF-7 cells, Table 9); 1.2 x in experiment [3] (Table 11 experiment). The “sensitivity to drug of prohibitin siRNA treated cells compared to mock controls” value (“sensitivity to drug … compared to mock controls” for short) in experiment [1] (MDA, FIGS. 13A-13H) is on record as “increased the sensitivity”; in experiment [1] (MDA, FIGS. 14A-14H), “more sensitive”. Further, in experiment [2], the “sensitivity to drug of prohibitin siRNA treated cells” value is “more sensitive”.

For `CC(=O)O[C@H]1C(=O)[C@@]2(C)[C@H]([C@H](OC(=O)c3ccccc3)[C@]3(O)C[C@H](OC(=O)[C@H](O)[C@@H](NC(=O)c4ccccc4)c4ccccc4)C(C)=C1C3(C)C)[C@]1(OC(C)=O)CO[C@@H]1C[C@@H]2O` [Taxol], the IC50 in experiment [1] (Table 3 experiment) came out at 200 nM; in experiment [1] (Table 4 experiment) it was 316 nM; in experiment [1] (Table 5 experiment), 5.11 nM; in experiment [1] (Table 6 experiment) it was 10.8 nM; in experiment [1] (Table 7 experiment), 8.32 nM; in experiment [1] (Table 8 experiment), 19.2 nM. Moreover, the values for the IC50 in experiment [3] (Table 10 experiment) and in experiment [3] (Table 11 experiment) were 0.895 nM and 1.82 nM, respectively. Further, the EC50 in experiment [1] (Table 3 experiment) was 515 nM; in experiment [1] (Table 4 experiment), 301 nM; in experiment [1] (Table 5 experiment), 6.55 nM; in experiment [1] (Table 6 experiment), 6.19 nM; in experiment [1] (Table 7 experiment), 4.38 nM; in experiment [1] (Table 8 experiment), 12.7 nM. The EC50 turned out to be 2.62 nM in experiment [2] (MCF-7 cells, Table 9); 0.536 nM in experiment [3] (Table 10 experiment); 1.09 nM in experiment [3] (Table 11 experiment). Also, the “fold change of EC50” value in experiment [1] (setting [4]) is 2.6 x; in experiment [1] (Table 5 experiment, direction IS/IR in same cell (E18)), 1.3 x; in experiment [1] (Table 6 experiment, direction IS/IR in same cell (E24)), 1.7 x; in experiment [1] (setting [6]), 1.9 x; in experiment [1] (setting [7]) it was 1.5 x; in experiment [2] (MCF-7 cells, Table 9), 30.0 x. For the same compound, in experiment [3] (Table 11 experiment), the “fold change of EC50” value stood at 1.7 x. Further, the “sensitivity to drug … compared to mock controls” value is given as “increased sensitivity” in experiment [1] (MDA, FIGS. 12A-12D); “increased the sensitivity” in experiment [1] (MDA, FIGS. 13A-13H); “more sensitive” in experiment [1] (MDA, FIGS. 14A-14H). Moreover, in experiment [2], the “sensitivity to drug of prohibitin siRNA treated cells” value was “more sensitive”. In addition, in experiment [2] (MCF-7 cells treated with prohibitin siRNA, FIG. 15B), the “increase in sensitivity to drug as compared to controls” value was found to be 30 fold.

With `CC[C@]1(O)C[C@H]2CN(CCc3c([nH]c4ccccc34)[C@@](C(=O)OC)(c3cc4c(cc3OC)N(C=O)[C@H]3[C@@](O)(C(=O)OC)[C@H](OC(C)=O)[C@]5(CC)C=CCN6CC[C@]43[C@@H]65)C2)C1` [Vincristin], the IC50 in experiment [1] (Table 3 experiment) came out at 2840 nM; in experiment [1] (Table 4 experiment) it was 1480 nM; in experiment [1] (Table 7 experiment), 12.3 nM; in experiment [1] (Table 8 experiment), 12.4 nM; in experiment [3] (Table 10 experiment), 3.75 nM; in experiment [3] (Table 11 experiment), 3.58 nM. Also, the EC50 in experiment [1] (Table 3 experiment) was determined as 837 nM; in experiment [1] (Table 4 experiment) it was 18600 nM; in experiment [1] (Table 8 experiment), 4.3 nM; in experiment [2] (MCF-7 cells, Table 9) it was 350 nM; in experiment [3] (Table 10 experiment), 3.17 nM; in experiment [3] (Table 11 experiment), 2.53 nM. Moreover, the “fold change of EC50” value in experiment [1] (setting [4]) is 3.4 x; in experiment [1] (setting [5]), 12.5 x; in experiment [1] (setting [7]), 2.9 x; in experiment [2] (MCF-7 cells, Table 9), 2.1 x; in experiment [3] (Table 11 experiment), 1.4 x. Besides, the “sensitivity to drug of prohibitin siRNA treated cells compared to mock-treated cells” value in experiment [1] (MDA, FIG. 9A-9H) was “increased sensitivity”. The “sensitivity to drug … compared to mock controls” value in experiment [1] (MDA, FIGS. 14A-14H) is “more sensitive”. The “change in sensitivity to the drug, Prohibitin vs Control” value in experiment [2] (MCF-7 cells, Table 9) was “IR (IR: “increased in resistance” to the drug)”.
